The target in this assay is T1, MAP3K3 (MEKK3) (Homo sapiens, UniProt Q99759).
T1 construct: purchased Thermo Fisher Scientific (Life Technologies) SelectScreen
The assay can be described thus: SelectScreen LanthaScreen. It is filed as binding. The note with it: read-out: % displacement. The procedure, abridged: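 SelectScreen broad panel; activity (Z'LYTE, Adapta) plus binding formats. ATP: Km app for CSF1R Z'LYTE; 10 for CAMK1 Adapta. Readout = % per kinase.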
(TR-FRET usually uses a lanthanide donor and a delayed reading to cut background.)

Among the data in publication PMC6934184, “Selective DNA-PKcs inhibition extends the therapeutic index of localized radiotherapy and chemotherapy” (The Journal of Clinical Investigation, 2019) are inhibition values, retold here.

T1 sequence (Q99759 whole entry): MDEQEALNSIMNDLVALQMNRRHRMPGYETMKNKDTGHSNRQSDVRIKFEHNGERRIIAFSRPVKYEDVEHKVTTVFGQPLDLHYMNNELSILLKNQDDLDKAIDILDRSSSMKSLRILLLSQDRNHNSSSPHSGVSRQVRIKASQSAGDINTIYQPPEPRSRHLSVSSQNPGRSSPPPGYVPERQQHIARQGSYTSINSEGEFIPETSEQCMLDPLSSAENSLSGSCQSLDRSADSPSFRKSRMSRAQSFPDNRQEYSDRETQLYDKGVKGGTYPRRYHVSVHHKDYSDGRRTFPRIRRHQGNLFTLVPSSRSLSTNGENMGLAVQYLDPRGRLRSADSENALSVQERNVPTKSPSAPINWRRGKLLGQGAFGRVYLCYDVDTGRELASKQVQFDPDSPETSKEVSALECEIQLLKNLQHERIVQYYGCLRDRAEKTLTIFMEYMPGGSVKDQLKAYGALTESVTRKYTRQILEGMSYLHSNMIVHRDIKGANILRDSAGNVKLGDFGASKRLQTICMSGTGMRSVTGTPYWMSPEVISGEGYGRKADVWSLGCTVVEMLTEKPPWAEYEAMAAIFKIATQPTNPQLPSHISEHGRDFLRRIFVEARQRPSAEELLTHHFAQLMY

Take `CN(C(=O)CN1CCOCC1)c1ccc2sc3c(-c4cccc5c(=O)cc(N6CC7CCC(C6)O7)oc45)cccc3c2c1` [NU5455]: the inhibition at 1 µM was -1.1%.
